In patent US10030006B2, “Coumarin based Hsp90 inhibitors with urea and ether substituents” (University of Kansas, priority 2013, dated 2018):

Experiments:
Type in all cases: cell-based
MDA1986 = experiment: Anti-proliferation assay, MDA1986; details: MDA1986; Table 6, substituted phenyl ureas; HSNCC
Experimental: (§1) Cells were maintained in a 1:1 mixture of Advanced DMEM/F12 (Gibco) supplemented with non-essential amino acids, L-glutamine (2 mM), streptomycin (500 μg/mL), penicillin (100 units/mL), and 10% FBS. Cells were grown to confluence in a humidified atmosphere (37° C., 5% CO2), seeded (2000/well, 100 μL) in 96-well plates, and allowed to attach overnight. Compound at varying concentrations in DMSO (1% DMSO final concentration) was added, and cells were returned to the incubator for 72 h. At 72 h, the number of viable cells was determined using an MTS/PMS cell proliferation kit (Promega) per the manufacturer's instructions. Cells incubated in 1% DMSO were used at 100% proliferation, and values were adjusted accordingly. IC50 values were calculated from separate experiments performed in triplicate using GraphPad Prism.

HMLE = experiment: Anti-proliferation assay, HMLE (normal); details: HMLE, Table 6, substituted phenyl ureas
Experimental: as §1

PC-3 = experiment: Anti-proliferation assay, PC-3; details: Homo sapiens, PC-3; Table 6, substituted phenyl ureas; Prostate Cancer
Experimental: as §1

A-549 = experiment: Anti-proliferation assay, A-549; details: Homo sapiens, A549; Table 6, substituted phenyl ureas
Experimental: as §1

[1] = tested on: MCF-7 (estrogen receptor positive breast cancer cells); experiment: Anti-proliferation assay (MTS/PMS, 72 h), MCF-7; details: Homo sapiens, MCF7; Table 6, substituted phenyl ureas; Breast Cancer; read-out: IC50 MCF-3
Experimental: as §1
(§2) The anti-proliferative activity of these compounds is evaluated against two breast cancer cell lines, SKBr3 (estrogen receptor negative, Her2 over-expressing breast cancer cells) and MCF-7 (estrogen receptor positive breast cancer cells).

MDAMB231 = experiment: Anti-proliferation assay, MDAMB231; details: Homo sapiens, MDA-MB-231; Table 6, substituted phenyl ureas; Tri-Neg
Experimental: as §1

MRC5 = experiment: Anti-proliferation assay, MRC5 (normal); details: Homo sapiens, MRC5, Table 6, substituted phenyl ureas
Experimental: as §1

HCT-116 = experiment: Anti-proliferation assay, HCT-116; details: Homo sapiens, HCT-116; Table 6, substituted phenyl ureas
Experimental: as §1

[2] = tested on: SKBr3 (estrogen receptor negative, Her2 over-expressing breast cancer cells); experiment: Anti-proliferation assay (MTS/PMS, 72 h), SKBr3; details: Homo sapiens, SK-BR-3; Table 6, substituted phenyl ureas; Breast Cancer; read-out: IC50 SKBr3
Experimental: as §1, §2

DRO81-1 = experiment: Anti-proliferation assay, DRO81-1; details: Table 6, substituted phenyl ureas; Thyroid
Experimental: as §1

JMAR = experiment: Anti-proliferation assay, JMAR; details: JMAR; Table 6, substituted phenyl ureas; HSNCC
Experimental: as §1

SMILES	IC50 (PC-3)	IC50 (A-549)	IC50 [1]	IC50 (MDAMB231)	IC50 (HCT-116)	IC50 [2]	IC50 (MDA1986)	IC50 (HMLE)	IC50 (MRC5)	IC50 (DRO81-1)	IC50 (JMAR)
Cc1c(OC2CCN(C)CC2)ccc2cc(NC(=O)Nc3ccc(Cl)c(Cl)c3)c(=O)oc12 [3,4-dichloro, 1-(3,4-dichlorophenyl)-3-(8-methyl-7-((1-methylpiperidin-4-yl)oxy)-2-oxo-2H-chromen-3-yl)urea]	2.04 µM	1.82 µM	1.78 µM	2.9 µM	17 µM	0.64 µM	2.6 µM	1.5 µM	2.1 µM	13.2 µM	6.7 µM
Cc1ccc(NC(=O)Nc2cc3ccc(OC4CCN(C)CC4)c(C)c3oc2=O)cc1C [3,4-dimethyl, 1-(3,4-dimethylphenyl)-3-(8-methyl-7-((1-methylpiperidin-4-yl)oxy)-2-oxo-2H-chromen-3-yl)urea]	1.33 µM	0.063 µM	0.33 µM	1.9 µM	0.066 µM	0.31 µM	1.3 µM	0.9 µM	2.7 µM	8.1 µM	1.7 µM
Cc1cc(C)cc(NC(=O)Nc2cc3ccc(OC4CCN(C)CC4)c(C)c3oc2=O)c1 [3,5-dimethyl, 1-(3,5-dimethylphenyl)-3-(8-methyl-7-((1-methylpiperidin-4-yl)oxy)-2-oxo-2H-chromen-3-yl)urea]	1.35 µM	0.052 µM	0.34 µM	0.65 µM	0.17 µM	0.3 µM	0.09 µM	13.8 µM	5.9 µM	8.4 µM	3.4 µM
COc1ccc(C(C)(C)C)cc1NC(=O)Nc1cc2ccc(OC3CCN(C)CC3)c(C)c2oc1=O [Compound 2-OMe-5-t-Bu, 1-(5-(tert-butyl)-2-methoxyphenyl)-3-(8-methyl-7-((1-methylpiperidin-4-yl)oxy)-2-oxo-2H-chromen-3-yl)urea]	3.82 µM	0.84 µM	1.53 µM	0.91 µM	1.24 µM	3.87 µM	0.09 µM	6.1 µM	2.65 µM	6.1 µM	3.8 µM
Cc1c(OC2CCN(C)CC2)ccc2cc(NC(=O)Nc3cccc(Cl)c3)c(=O)oc12 [m-Cl, 1-(3-chlorophenyl)-3-(8-methyl-7-((1-methylpiperidin-4-yl)oxy)-2-oxo-2H-chromen-3-yl)urea]	1.82 µM	0.063 µM	0.52 µM	0.57 µM	0.22 µM	0.3 µM	1.7 µM	22 µM	3.1 µM	3.8 µM	1.7 µM

Molecules with a lower IC50 (PC-3), results first:

IC50 (PC-3)	IC50 (A-549)	IC50 [1]	IC50 (MDAMB231)	IC50 (HCT-116)	IC50 [2]	SMILES	IC50 (MDA1986)	IC50 (HMLE)	IC50 (MRC5)	IC50 (DRO81-1)	IC50 (JMAR)
0.27 µM	0.43 µM	1.11 µM	2.6 µM	0.77 µM	3.79 µM	Cc1ccc(NC(=O)Nc2cc3ccc(OC4CCN(C)CC4)c(C)c3oc2=O)c(C)c1 [2,4-dimethyl, 1-(2,4-dimethylphenyl)-3-(8-methyl-7-((1-methylpiperidin-4-yl)oxy)-2-oxo-2H-chromen-3-yl)urea]	1.9 µM	> 25 µM	3.6 µM	2.3 µM	1.1 µM
0.16 µM	0.2 µM	0.49 µM	3.6 µM	1.21 µM	0.51 µM	Cc1c(OC2CCN(C)CC2)ccc2cc(NC(=O)Nc3cc(Cl)cc(Cl)c3)c(=O)oc12 [3,5-dichloro, 1-(3,5-dichlorophenyl)-3-(8-methyl-7-((1-methylpiperidin-4-yl)oxy)-2-oxo-2H-chromen-3-yl)urea]	7.5 µM	> 25 µM	> 25 µM	0.77 µM	6.2 µM
